Measurements from patent publication US11046712B2, “Glycosidase inhibitors” (Asceneuron SA, priority 2014, dated 2021).

Molecular target: His-Tagged hOGA (human O-GlcNAcase) (Homo sapiens (Human), UniProt O60502)
Test: Human O-GlcNAcase enzyme inhibition assay (Example B01)
Type: biochemical

His-Tagged hOGA (human O-GlcNAcase), sequence (O60502 whole entry): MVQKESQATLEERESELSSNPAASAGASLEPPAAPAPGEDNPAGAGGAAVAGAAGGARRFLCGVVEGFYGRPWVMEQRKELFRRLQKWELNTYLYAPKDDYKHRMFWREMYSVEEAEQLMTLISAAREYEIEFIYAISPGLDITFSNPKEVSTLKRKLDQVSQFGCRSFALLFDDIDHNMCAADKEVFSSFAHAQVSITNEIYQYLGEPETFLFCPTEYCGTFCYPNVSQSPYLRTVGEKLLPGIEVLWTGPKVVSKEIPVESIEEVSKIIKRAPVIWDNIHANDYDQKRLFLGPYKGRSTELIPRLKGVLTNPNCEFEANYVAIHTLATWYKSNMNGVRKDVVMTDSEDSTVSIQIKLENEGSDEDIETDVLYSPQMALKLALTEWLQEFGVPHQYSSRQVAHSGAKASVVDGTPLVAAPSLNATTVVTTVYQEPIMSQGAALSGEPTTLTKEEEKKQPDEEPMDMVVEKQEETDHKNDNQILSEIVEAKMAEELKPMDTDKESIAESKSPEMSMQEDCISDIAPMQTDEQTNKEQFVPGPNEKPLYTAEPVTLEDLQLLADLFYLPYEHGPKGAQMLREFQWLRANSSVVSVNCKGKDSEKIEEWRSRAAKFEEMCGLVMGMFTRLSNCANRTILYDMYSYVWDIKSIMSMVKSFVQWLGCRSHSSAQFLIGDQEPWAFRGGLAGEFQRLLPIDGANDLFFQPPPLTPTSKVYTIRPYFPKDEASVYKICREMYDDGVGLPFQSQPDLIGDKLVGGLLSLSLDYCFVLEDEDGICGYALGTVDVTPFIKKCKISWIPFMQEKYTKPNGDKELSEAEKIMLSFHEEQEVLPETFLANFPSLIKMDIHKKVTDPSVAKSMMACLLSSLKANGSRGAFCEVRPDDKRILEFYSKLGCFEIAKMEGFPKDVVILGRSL

OGA inhibitor activity, in words	Compound	IC50 (OGA IC50 (M), OGA enzyme inhibition assay, activity range classes) [M]
very potent OGA inhibitors	C[C@@H](c1ccc2c(c1)OCO2)N1CCN(c2ncc(C3(O)CCCCC3)cn2)CC1 [Example 180, (S)-1-(2-(4-(1-(benzo[dl][1,31dioxol-5-yl)ethyl)piperazin-1-yl)pyrimidin-5-yl)cyclohexan-1-ol]	–
very potent OGA inhibitors	CC(=O)Nc1nnc(N2CCN(C(C)c3ccc4scnc4c3)CC2)s1 (racemic) [Example 114]	–
very potent OGA inhibitors	C[C@@H](c1ccc2c(c1)OCO2)N1CCN(c2ncc(C(C)(C)O)cn2)CC1 [Example 176, (S)-2-(2-(4-(1-(benzordiri,31dioxol-5-yl)ethyl)piperazin-1-yl)pyrimidin-5-yl)propan-2-ol]	–
–	COc1cc(C(C)N2CCN(c3nnc(NC(C)=O)s3)CC2)ccc1Cl (racemic) [Example 88]	1e-06 to 1e-05
